Tests used:
[1] = tested on: 3T3-L1 cells; assay: Adipocyte differentiation inhibitory ability in 3T3-L1 cells; type: cell-based
[2] = tested on: other nuclear receptors; assay: Selectivity for various nuclear receptors, transfection assay; type: cell-based; details: same method as LXR assay
Protocol: Animal cell line CV-1 was used in transfection search. Cells were cultured in DMEM medium within a cell culture device containing 5% carbon dioxide at 37° C. The medium contained 10% FBS (fetal bovine serum), 100 U/ml penicillin, and 100 μg/ml streptomycin. On day 1 of the experiment, CV 1 cells were seeded in 96 well plates at 5,000 cells/well. On day 2, the seeded cells were transfected with plasmid expressing GAL-hLXR, plasmid expressing Luciferase gene, and plasmid expressing β-galactocidase by using a transfection reagent, Superfect (QIAGEN). After 16 hours, the transfected cells were treated with the compound 1 dissolved in dimethylsulfoxide (DMSO) by the concentrations, together with the agonist, TO901317 (2.5 μM). Cells treated with dimethylsulfoxide having the final concentration of 1% were used as a negative control group, and cells treated with T0901317 having the final concentration of 500 nM were used as a positive control group. The cells were cultured for 24 hours, and lysed by using a lysis buffer. […] The β-galactosidase activity, after adding of an ONPG reagent, was measured using an ELISA reader. The measured Luciferase value was corrected by activity value of β-galactosidase. […] In addition, the activities on various nuclear receptors were measured by using the same method, in order to measure selectivity for various nuclear receptors.

CC(C)=CCC/C(C)=C/[C@H]1CC(C)=C[C@@]2(C=C(CO)[C@@H]3CC(=O)C(C)=C[C@@H]3O2)O1 [Compound 1]
adipocyte differentiation inhibitory ability [1]: very superior adipocyte differentiation inhibitory ability | activity on the other nuclear receptors [2]: never showed the activity

Reference: US8703813B2, “Compound with spiro chiral carbon backbone, preparation method thereof, and pharmaceutical composition containing the same” (SNU R & DB Foundation, priority 2008, dated 2014)
